From article PMC7031696 (Cell chemical biology, 2019)
Read-outs that look alike come from different tables or passages of the source.

Tests used:
[1] = tested on: Plasmodium falciparum 3D7-A10 parasites; assay: Stage specificity assay (8-h exposure of synchronized stages, IC50^8h); format: cell-based; conditions: for IC50: Plasmodium falciparum
[2] = tested on: asynchronous 3D7-A10 parasite cultures; assay: Standard 72-h exposure asexual blood stage susceptibility assay (IC50^72h); format: cell-based, Plasmodium falciparum; conditions: Plasmodium falciparum, 3D7, 72 h, read-out: Overall (72hr assay) Mean IC50 (IC50^72h)
[3] = tested on: 3D7-MR4 trophozoite parasite-infected RBCs; assay: Metabolomic profiling (hydrophilic metabolite changes, UHPLC-MS); format: cell-based, Plasmodium falciparum

## CCOC(=O)C1=C(C)NC2=C(C(=O)CC(c3ccc(OC)c(OC)c3)C2)C1c1ccccc1Cl (stereo not shown) [GNF-Pf-5660, reference compound]
[1]; 3D7-A10
  Ratio lowest IC50 8hr/IC50 72hr: 18.0
[1]; 3D7, read-out: Early rings Mean IC50 (IC50^8h), 8-h exposure 0–8 hr, 3D7-A10, survival at 60 h
  IC50: 0.119 µM
[1]; 3D7, read-out: Early trophozoites Mean IC50 (IC50^8h), 8-h exposure 16–24 hr, 3D7-A10, survival at 60 h
  IC50: 0.108 µM
[1]; 3D7, read-out: Late rings Mean IC50 (IC50^8h), 8-h exposure 8–16 hr, 3D7-A10, survival at 60 h
  IC50: 0.238 µM
[1]; 3D7, read-out: Late trophozoites Mean IC50 (IC50^8h), 8-h exposure 24–32 hr, 3D7-A10, survival at 60 h
  IC50: 0.0793 µM
[1]; 3D7, read-out: Schizonts Mean IC50 (IC50^8h), 8-h exposure 32–40 hr, 3D7-A10, survival at 60 h
  IC50: 0.29 µM
[1]; period when the parasite was most susceptible (lowest IC50^8h)
  Stage of peak activity (Figure 6): rings and trophozoites
[2]
  IC50: 0.0044 µM
[3]; 10 × IC50^72h, 2.5 hr, trophozoites
  peptide levels (hemoglobin catabolism signature): decreased peptide levels
[3]; metabolite 3-phosphoglycerate, log2 fold change
  Log2(fold changes) 3-phosphoglycerate: 0.0553
[3]; metabolite 4-Pyridoxic acid, log2 fold change
  Log2(fold changes) 4-Pyridoxic acid: 0.0311
[3]; metabolite 4-aminobutyrate, log2 fold change
  Log2(fold changes) 4-aminobutyrate: -0.1913
[3]; metabolite 4-phosphopantetheine, log2 fold change
  Log2(fold changes) 4-phosphopantetheine: -0.0588
[3]; metabolite 4-phosphopantothenate, log2 fold change
  Log2(fold changes) 4-phosphopantothenate: -0.0656
[3]; metabolite 5-aminopentanoic acid, log2 fold change
  Log2(fold changes) 5-aminopentanoic acid: 0.0000
[3]; metabolite 5-methyl-THF, log2 fold change
  Log2(fold changes) 5-methyl-THF: 0.0000
[3]; metabolite 5-phosphoribosyl-1-pyrophosphate, log2 fold change
  Log2(fold changes) 5-phosphoribosyl-1-pyrophosphate: 0.0000
[3]; metabolite 6-phospho-D-gluconate, log2 fold change
  Log2(fold changes) 6-phospho-D-gluconate: -0.0448
[3]; metabolite HVDD
  Log2(fold change) HVDD: -2.3471
[3]; metabolite Hydroxyisocaproic acid
  Log2(fold change) Hydroxyisocaproic acid: 0.0000
[3]; metabolite IDP
  Log2(fold change) IDP: 0.0000
[3]; metabolite IMP
  Log2(fold change) IMP: -0.0436
[3]; metabolite Inositol
  Log2(fold change) Inositol: 0.0000
[3]; metabolite Isopentyl-PP
  Log2(fold change) Isopentyl-PP: 0.0000
[3]; metabolite L-arginino-succinate
  Log2(fold change) L-arginino-succinate: -1.4037
[3]; metabolite LD
  Log2(fold change) LD: 0.0323
[3]; metabolite Myristoyl/tetradecanoyl-CoA
  Log2(fold change) Myristoyl/tetradecanoyl-CoA: 0.0000
[3]; metabolite N-Acetyl-L-alanine
  Log2(fold change) N-Acetyl-L-alanine: -0.5679
[3]; metabolite N-acetyl-L-ornithine
  Log2(fold change) N-acetyl-L-ornithine: -1.3851
[3]; metabolite N-acetyl-glucosamine-1/6-phosphate
  Log2(fold change) N-acetyl-glucosamine-1/6-phosphate: 0.1805
[3]; metabolite N-acetyl-glutamate
  Log2(fold change) N-acetyl-glutamate: 0.1150
[3]; metabolite N-acetyl-glutamine
  Log2(fold change) N-acetyl-glutamine: -0.5582
[3]; metabolite N-carbamoyl-L-aspartate
  Log2(fold change) N-carbamoyl-L-aspartate: -0.1586
[3]; metabolite NAD+
  Log2(fold change) NAD+: -0.1007
[3]; metabolite NADH
  Log2(fold change) NADH: 0.4611
[3]; metabolite NADP+
  Log2(fold change) NADP+: 0.0287
[3]; metabolite NADPH
  Log2(fold change) NADPH: 0.0479
[3]; metabolite O-acetyl-L-serine
  Log2(fold change) O-acetyl-L-serine: 0.0000
[3]; metabolite Octoluse 8/1P
  Log2(fold change) Octoluse 8/1P: -0.0806
[3]; metabolite Octoluse Bisphosphate
  Log2(fold change) Octoluse Bisphosphate: -0.3183
[3]; metabolite PD
  Log2(fold change) PD: -1.8683
[3]; metabolite PE
  Log2(fold change) PE: -1.8289
[3]; metabolite PEE
  Log2(fold change) PEE: -1.8489
[3]; metabolite PEEK
  Log2(fold change) PEEK: -2.1431
[3]; metabolite PVNF
  Log2(fold change) PVNF: -2.1997
[3]; metabolite Pyroglutamic acid
  Log2(fold change) Pyroglutamic acid: -0.1216
[3]; metabolite Pyrophosphate
  Log2(fold change) Pyrophosphate: 0.0000
[3]; metabolite Ribose-5-phosphate
  Log2(fold change) Ribose-5-phosphate: 0.0000
[3]; metabolite S-adenosyl-L-homocysteine
  Log2(fold change) S-adenosyl-L-homocysteine: -0.0693
[3]; metabolite S-adenosyl-L-methioninamine
  Log2(fold change) S-adenosyl-L-methioninamine: 0.0000
[3]; metabolite S-adenosyl-L-methionine
  Log2(fold change) S-adenosyl-L-methionine: 0.0000
[3]; metabolite S-methyl-5'-thioadenosine
  Log2(fold change) S-methyl-5'-thioadenosine: -0.0720
[3]; metabolite SD
  Log2(fold change) SD: -1.1525
[3]; metabolite SDL
  Log2(fold change) SDL: -1.7902
[3]; metabolite SID
  Log2(fold change) SID: 0.0000
[3]; metabolite Sedoheptulose bisphosphate
  Log2(fold change) Sedoheptulose bisphosphate: -0.1508
[3]; metabolite Thiamine pyrophosphate
  Log2(fold change) Thiamine pyrophosphate: 0.0000
[3]; metabolite UDP-D-glucose, log2 fold change
  Log2(fold changes) UDP-D-glucose: 0.0139
[3]; metabolite UDP-D-glucuronate, log2 fold change
  Log2(fold changes) UDP-D-glucuronate: 0.0860
[3]; metabolite UDP-N-acetyl-glucosamine, log2 fold change
  Log2(fold changes) UDP-N-acetyl-glucosamine: -0.0276
[3]; metabolite UDP, log2 fold change
  Log2(fold changes) UDP: 0.1561
[3]; metabolite UMP, log2 fold change
  Log2(fold changes) UMP: -0.3498
[3]; metabolite UTP, log2 fold change
  Log2(fold changes) UTP: 0.0000
[3]; metabolite hydroxyphenylpyruvate
  Log2(fold change) hydroxyphenylpyruvate: 0.0000
[3]; metabolite hydroxyproline/Aminolevulinate
  Log2(fold change) hydroxyproline/Aminolevulinate: 0.0000
[3]; metabolite hypoxanthine
  Log2(fold change) hypoxanthine: 0.0715
[3]; metabolite indole
  Log2(fold change) indole: -0.1422
[3]; metabolite inosine
  Log2(fold change) inosine: -0.1669
[3]; metabolite isoleucine
  Log2(fold change) isoleucine: 0.0000
[3]; metabolite lactate
  Log2(fold change) lactate: -0.0958
[3]; metabolite leucine
  Log2(fold change) leucine: 0.0000
[3]; metabolite lysine
  Log2(fold change) lysine: 0.0000
[3]; metabolite malate
  Log2(fold change) malate: -0.8784
[3]; metabolite maleic acid
  Log2(fold change) maleic acid: -0.8581
[3]; metabolite methionine
  Log2(fold change) methionine: -0.1925
[3]; metabolite myo-inositol
  Log2(fold change) myo-inositol: 0.0386
[3]; metabolite nicotinamide mononucleotide
  Log2(fold change) nicotinamide mononucleotide: -0.1106
[3]; metabolite nicotinate
  Log2(fold change) nicotinate: 0.1148
[3]; metabolite ornithine
  Log2(fold change) ornithine: -0.1689
[3]; metabolite orotate
  Log2(fold change) orotate: -0.3275
[3]; metabolite orotidine-5'-phosphate
  Log2(fold change) orotidine-5'-phosphate: -1.3140
[3]; metabolite oxaloacetate
  Log2(fold change) oxaloacetate: -0.1481
[3]; metabolite p-aminobenzoate
  Log2(fold change) p-aminobenzoate: -0.1878
[3]; metabolite p-hydroxybenzoate
  Log2(fold change) p-hydroxybenzoate: 0.0000
[3]; metabolite pantothenate
  Log2(fold change) pantothenate: -0.2858
[3]; metabolite phenylalanine
  Log2(fold change) phenylalanine: -0.3503
[3]; metabolite phenylpyruvate
  Log2(fold change) phenylpyruvate: 0.0000
[3]; metabolite phosphoenolpyruvate
  Log2(fold change) phosphoenolpyruvate: 0.2491
[3]; metabolite prephenate
  Log2(fold change) prephenate: -0.5893
[3]; metabolite proline
  Log2(fold change) proline: 0.0000
[3]; metabolite pyridoxine
  Log2(fold change) pyridoxine: -0.1054
[3]; metabolite pyruvate
  Log2(fold change) pyruvate: -0.3244
[3]; metabolite riboflavin
  Log2(fold change) riboflavin: -0.0162
[3]; metabolite ribose
  Log2(fold change) ribose: 0.0000
[3]; metabolite ribose-phosphate
  Log2(fold change) ribose-phosphate: -0.2537
[3]; metabolite ribulose-5-phosphate
  Log2(fold change) ribulose-5-phosphate: 0.0000
[3]; metabolite serine
  Log2(fold change) serine: 0.0000
[3]; metabolite sn-glycerol-3-phosphate
  Log2(fold change) sn-glycerol-3-phosphate: 0.1845
[3]; metabolite succinate/Methylmalonic acid
  Log2(fold change) succinate/Methylmalonic acid: -0.0086
[3]; metabolite succinyl-CoA/methylmalonyl-CoA
  Log2(fold change) succinyl-CoA/methylmalonyl-CoA: 0.0000
[3]; metabolite taurine
  Log2(fold change) taurine: 0.0000
[3]; metabolite thiamine
  Log2(fold change) thiamine: -0.1840
[3]; metabolite threonine/homoserine
  Log2(fold change) threonine/homoserine: 0.0000
[3]; metabolite thymidine
  Log2(fold change) thymidine: 0.0000
[3]; metabolite thymine, log2 fold change
  Log2(fold changes) thymine: 0.0000
[3]; metabolite trehalose-6-Phosphate, log2 fold change
  Log2(fold changes) trehalose-6-Phosphate: 0.0000
[3]; metabolite tryptophan, log2 fold change
  Log2(fold changes) tryptophan: -0.0821
[3]; metabolite tyrosine, log2 fold change
  Log2(fold changes) tyrosine: -0.1854
[3]; metabolite uridine, log2 fold change
  Log2(fold changes) uridine: -0.2184
